We go through 19 compounds from US7390813B1, “Pyridylpiperazines and aminonicotinamides and their use as therapeutic agents” (Xenon Pharmaceuticals Inc., priority 2001, dated 2008).

Like-named read-outs stand apart in the source and are kept apart here. A value given as a limit tells only on which side of the number the result lay.

One assay concerns stearoyl-CoA desaturase. Briefly: Fatty acid composition in rats after repeated dosing. In kind it is in vivo. As to conditions: 9 doses (2 per day), 30 mg/kg body weight, HCl salt. An excerpt: A highly preferred compound of the invention has the structure of Formula I, wherein R1 is H and R2 is isopentyl, X=C, n=2, m=1 and R3=2-trifluoromethylphenyl.
Assay [1] addresses T1, stearoyl-CoA desaturase (SCD) (Mus musculus, UniProt P13516).
T1 construct: % Remaining SCD activity compared to DMSO control in mouse liver microsome assay; from tissue; host or cells: mouse liver microsomes
T1 sequence (P13516 1-355): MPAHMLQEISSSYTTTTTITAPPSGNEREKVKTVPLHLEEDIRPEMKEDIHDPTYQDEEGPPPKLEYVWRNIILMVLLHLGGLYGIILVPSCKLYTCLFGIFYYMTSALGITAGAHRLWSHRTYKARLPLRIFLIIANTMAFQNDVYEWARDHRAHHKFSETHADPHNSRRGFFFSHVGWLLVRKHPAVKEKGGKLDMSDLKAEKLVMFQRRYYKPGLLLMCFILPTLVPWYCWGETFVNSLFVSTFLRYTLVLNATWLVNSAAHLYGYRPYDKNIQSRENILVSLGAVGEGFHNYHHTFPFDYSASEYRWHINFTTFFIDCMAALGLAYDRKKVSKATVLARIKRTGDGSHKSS
Briefly: SCD mouse liver microsome assay (tritiated stearoyl-CoA desaturation). In kind it is biochemical. The following applies: for % Remaining SCD activity compared to DMSO control, average: mouse liver microsomes 100 μg, 15 min RT preincubation, 15 min RT desaturation. Here is the method: The identification of compounds of the invention was readily accomplished using the SCD enzyme and microsomal assay procedure described in Brownlie et al, supra.
Briefly, mouse or human liver microsomes (induced for SCD1 expression and containing cytochrome b5 and cytochrome b5 reductase) and NADH are suspended in buffer with a test compound, and reaction is initiated by addition of 0.025 mM tritiated stearoyl-CoA. This ligand is tritiated at the C9 and C10 position only. The reaction is allowed to proceed for between 5 and 20 minutes at room temperature, whereupon it is halted by addition of acid. Activated charcoal is then added, mixed, and centrifuged to separate labeled substrate from labeled water. An aliquot of supernatant is than tested for radioactivity using liquid scintillation counting. This is taken as a measure of delta-9 desaturase activity.
The compounds and compositions of the invention were tested in mouse liver microsomes, 100 μg for 15 minutes at room temperature pre-incubation with the compound and 15 minutes at room temperature desaturation period. […] Identification numbers are the same as those indicated in FIGS. 1 and 2 showing the structures and characteristics of the compounds.
% Remaining SCD activity compared to DMSO control in mouse liver microsome assay at concentration of test compound indicated. Compounds tested in mouse liver microsomes, 100 μg, 15 min RT preincubation with compound, 15 min RT desaturation period, Large volume bench-top tube method.
(Microsomes from liver hold many membrane-bound enzymes, among them those of drug oxidation.)

Setting [2] is: Table 5, % remaining SCD activity at 0.1 μM, mouse microsome assay.
[3] abbreviates: Table 5, % remaining SCD activity at 1 μM, mouse microsome assay.
[4] abbreviates: Table 5, % remaining SCD activity at 10 μM, mouse microsome assay.

For the compound `CC(C)CCNC(=O)c1ccc(N2CCN(C(=O)c3ccccc3C(F)(F)F)CC2)nc1`, the “changes in fatty acid composition” value in the assay on stearoyl-CoA desaturase was “changes in fatty acid composition consistent with inhibition of SCD activity”.
Consider `O=C(NCCc1cccc(Cl)c1)c1ccc(N2CCN(C(=O)c3ccccc3C(F)(F)F)CC2)nc1` [Compound X01], for which the “% Remaining SCD activity compared to DMSO control, average” value (“% Remaining SCD activity” below) is on record as 57.77% in assay [1] (0.1 uM test compound), 9.05% in assay [1] (1 uM test compound) and 1.42% in assay [1] (10 uM test compound). For the same compound, the “% Activity 0.1 μM” value in assay [1] (setting [2]) is recorded as 58%. Moreover, the “% Activity 1 μM” value in assay [1] (setting [3]) amounted to 9.1%. In addition, the “% Activity 10 μM” value in assay [1] (setting [4]) worked out at 1.4%.
`CC(C)CCNC(=O)c1ccc(N2CCN(C(=O)c3ccccc3Br)CC2)nc1` [Compound X02]: the “% Remaining SCD activity” value in assay [1] (0.1 uM test compound) came to 25.68%; in assay [1] (1 uM test compound) it was 5.49%; in assay [1] (10 uM test compound) it was 1.27%. For the same compound, in assay [1] (setting [2]), the “% Activity 0.1 μM” value is 26%. The “% Activity 1 μM” value in assay [1] (setting [3]) was 5.5%. Further, the “% Activity 10 μM” value in assay [1] (setting [4]) was found to be 1.3%.
In the case of `O=C(NCCCc1ccccc1)c1ccc(N2CCN(C(=O)c3ccccc3C(F)(F)F)CC2)nc1` [Compound X03], the “% Remaining SCD activity” value in assay [1] (0.1 uM test compound) is given as 26.04%; in assay [1] (1 uM test compound), 2.17%; in assay [1] (10 uM test compound), 0.72%. The “% of the activity inhibited” value in assay [1] (10 μM concentration of the compound) was more than 99%. For the same compound, the “% Activity 0.1 μM” value in assay [1] (setting [2]) turned out to be 26%. In addition, the “% Activity 1 μM” value in assay [1] (setting [3]) was found to be 2.2%. Besides, in assay [1] (setting [4]), the “% Activity 10 μM” value came out at 0.7%.
Take `O=C(NCCc1ccccc1)c1ccc(N2CCN(C(=O)c3ccccc3Br)CC2)nc1` [Compound X04]: the “% Remaining SCD activity” value in assay [1] (0.1 uM test compound) was found to be 36.54%; in assay [1] (1 uM test compound) it was 5.48%; in assay [1] (10 uM test compound), 1.29%. Besides, in assay [1] (setting [2]), the “% Activity 0.1 μM” value is listed as 37%. The “% Activity 1 μM” value in assay [1] (setting [3]) came to 5.5%. Besides, the “% Activity 10 μM” value in assay [1] (setting [4]) was 1.3%.
Regarding `CC(C)CCNC(=O)c1ccc(N2CCN(C(=O)c3ccccc3C(F)(F)F)CC2)nc1` [Compound X05], the “% Remaining SCD activity” value in assay [1] (0.1 uM test compound) came to 17.09%; in assay [1] (1 uM test compound), 3.05%; in assay [1] (10 uM test compound) it was 0.81%. In assay [1] (setting [2]), this compound registered an activity at 0.1 µM of 17%. Besides, in assay [1] (setting [3]), the activity at 1 µM stood at 3.1%. In assay [1] (setting [4]), this compound returned an activity at 10 µM of 0.8%. Also, in assay [1] (stated in summary text, read-out: IC50 value), the IC50 is 32 nM.
Turning to `CCCCCNC(=O)c1ccc(N2CCN(C(=O)c3cc(Cl)ccc3Cl)CC2)nc1` [Compound X06], the “% Remaining SCD activity” value was found to be 38.00% in assay [1] (0.1 uM test compound), 5.38% in assay [1] (1 uM test compound) and 1.97% in assay [1] (10 uM test compound). The “% Activity 0.1 μM” value in assay [1] (setting [2]) is given as 38%. Besides, the “% Activity 1 μM” value in assay [1] (setting [3]) was determined as 5.4%. Besides, in assay [1] (setting [4]), the “% Activity 10 μM” value amounted to 2%.
`CCCCNC(=O)c1ccc(N2CCN(C(=O)c3ccccc3C(F)(F)F)CC2)nc1` [Compound X09]: the “% Remaining SCD activity” value was found to be 63.58% in assay [1] (0.1 uM test compound), 14.80% in assay [1] (1 uM test compound) and 2.69% in assay [1] (10 uM test compound). For the same compound, in assay [1] (setting [2]), the “% Activity 0.1 μM” value amounted to 64%. For the same compound, the “% Activity 1 μM” value in assay [1] (setting [3]) was 15%. The “% Activity 10 μM” value in assay [1] (setting [4]) was determined as 2.7%.
Consider `O=C(NCCCc1ccccc1)c1ccc(N2CCN(C(=O)c3cc(Cl)ccc3Cl)CC2)nc1` [Compound X10], for which the figures for the “% Remaining SCD activity” value in assay [1] (0.1 uM test compound), in assay [1] (1 uM test compound) and in assay [1] (10 uM test compound) were 29.72%, 3.37% and 1.07%, respectively. Also, the “% Activity 0.1 μM” value in assay [1] (setting [2]) came out at 30%. Also, the “% Activity 1 μM” value in assay [1] (setting [3]) came out at 3.4%. The “% Activity 10 μM” value in assay [1] (setting [4]) is 1.1%.
Turning to `CCCCCNC(=O)c1ccc(N2CCN(C(=O)c3ccccc3C(F)(F)F)CC2)nc1` [Compound X11], the figures for the “% Remaining SCD activity” value in assay [1] (0.1 uM test compound), in assay [1] (1 uM test compound) and in assay [1] (10 uM test compound) were 25.41%, 3.67% and 1.72%, respectively. Besides, in assay [1] (setting [2]), the “% Activity 0.1 μM” value is recorded as 25%. Besides, in assay [1] (setting [3]), the “% Activity 1 μM” value amounted to 3.7%. The “% Activity 10 μM” value in assay [1] (setting [4]) was found to be 1.7%. In addition, the IC50 in assay [1] (Table 5, SCD inhibition, read-out: IC50) turned out to be 37 nM.
For the compound `O=C(NCCc1ccccc1)c1ccc(N2CCN(C(=O)c3cc(Cl)ccc3Cl)CC2)nc1` [Compound X12], the “% Remaining SCD activity” value is 29.87% in assay [1] (0.1 uM test compound), 3.91% in assay [1] (1 uM test compound) and 1.15% in assay [1] (10 uM test compound). Besides, the “% Activity 0.1 μM” value in assay [1] (setting [2]) worked out at 30%. Besides, the “% Activity 1 μM” value in assay [1] (setting [3]) worked out at 3.9%. The “% Activity 10 μM” value in assay [1] (setting [4]) came to 1.2%.
With `CCCCCNC(=O)c1ccc(N2CCN(C(=O)c3ccccc3Br)CC2)nc1` [Compound X13], the results for the “% Remaining SCD activity” value in assay [1] (0.1 uM test compound), in assay [1] (1 uM test compound) and in assay [1] (10 uM test compound) were 44.42%, 7.77% and 1.75%, respectively. Also, the “% Activity 0.1 μM” value in assay [1] (setting [2]) was 44%. The “% Activity 1 μM” value in assay [1] (setting [3]) was determined as 7.8%. In addition, the “% Activity 10 μM” value in assay [1] (setting [4]) worked out at 1.8%.
For `CC(C)CCNC(=O)c1ccc(N2CCN(C(=O)c3ccc(Cl)cc3Cl)CC2)nc1` [Compound X14], the “% Remaining SCD activity” value is 38.24% in assay [1] (0.1 uM test compound), 7.44% in assay [1] (1 uM test compound) and 1.39% in assay [1] (10 uM test compound). In addition, the “% Activity 0.1 μM” value in assay [1] (setting [2]) is 38%. In addition, the “% Activity 1 μM” value in assay [1] (setting [3]) was determined as 7.4%. The “% Activity 10 μM” value in assay [1] (setting [4]) came out at 1.4%.
In the case of `CCCCCCNC(=O)c1ccc(N2CCN(C(=O)c3ccccc3C(F)(F)F)CC2)nc1` [Compound X15], the “% Remaining SCD activity” value in assay [1] (0.1 uM test compound) worked out at 44.95%; in assay [1] (1 uM test compound), 6.46%; in assay [1] (10 uM test compound), 1.22%. For the same compound, the “% Activity 0.1 μM” value in assay [1] (setting [2]) came to 45%. Besides, in assay [1] (setting [3]), the “% Activity 1 μM” value is recorded as 6.5%. Further, in assay [1] (setting [4]), the “% Activity 10 μM” value turned out to be 1.2%.
In the case of `CC(C)CCNC(=O)c1ccc(N2CCN(C(=O)c3cccc4ccccc34)CC2)nc1` [Compound X16], the “% Remaining SCD activity” value in assay [1] (0.1 uM test compound) is listed as 31.35%; in assay [1] (1 uM test compound), 7.01%; in assay [1] (10 uM test compound), 2.06%. The “% Activity 0.1 μM” value in assay [1] (setting [2]) came to 31%. Also, the “% Activity 1 μM” value in assay [1] (setting [3]) was determined as 7%. The “% Activity 10 μM” value in assay [1] (setting [4]) is 2.1%.
Turning to `COc1ccc(Br)c(C(=O)N2CCN(c3ccc(C(=O)NCCCc4ccccc4)cn3)CC2)c1` [Compound X17], the entries for the “% Remaining SCD activity” value in assay [1] (0.1 uM test compound), in assay [1] (1 uM test compound) and in assay [1] (10 uM test compound) were 61.74%, 10.59% and 1.01%, respectively. The “% Activity 10 μM” value in assay [1] (setting [4]) is given as 1.01%.
In the case of `Cc1ccsc1C(=O)N1CCN(c2ccc(C(=O)NCCc3cccc(Cl)c3)cn2)CC1` [Compound X18], the “% Remaining SCD activity” value is listed as 86.33% in assay [1] (0.1 uM test compound), 32.64% in assay [1] (1 uM test compound) and 3.41% in assay [1] (10 uM test compound). For the same compound, in assay [1] (setting [4]), the “% Activity 10 μM” value was 3.41%.
Regarding `CCCCNC(=O)c1ccc(N2CCN(C(=O)c3ccccc3Br)CC2)nc1` [Compound X19], the “% Remaining SCD activity” value in assay [1] (0.1 uM test compound) turned out to be 75.14%; in assay [1] (1 uM test compound), 18.59%; in assay [1] (10 uM test compound), 3.57%. Also, the “% Activity 10 μM” value in assay [1] (setting [4]) was found to be 3.57%.
Take `Cc1ccccc1CC(=O)N1CCN(c2ccc(C(=O)NCCC(C)C)cn2)CC1` [Compound X21]: the figures for the “% Remaining SCD activity” value in assay [1] (0.1 uM test compound), in assay [1] (1 uM test compound) and in assay [1] (10 uM test compound) were 74.82%, 33.28% and 3.94%, respectively. Further, the “% Activity 10 μM” value in assay [1] (setting [4]) is given as 3.94%.

As a reminder, the IC50 is the point on the concentration scale where inhibition reaches its midpoint.
